Experimental data taken from patent EP4667463A1, “DOMIDE MOLECULAR GLUE DERIVATIVE AND USE THEREOF” (CSPC Megalith Biopharmaceutical Co., Ltd., priority 2023, dated 2024).
Where two headings read alike, the source gives them in different places. Each block holds one compound with its values, some of them ahead of it.

Columns and labels:
SK-BR-3 = assay: In vitro anti-tumor activity of molecular glue compounds, CellTiter-Lumi cell viability assay; type: cell-based; conditions: Homo sapiens, SK-BR-3 cells
Procedure: (§1) Different tumor cells were all commercially available and used for evaluating the anti-tumor inhibitory activity of the compounds of the present disclosure. Various tumor cells were cultured until the cell confluency reached 80%-90%, with cell viability above 90% as determined by trypan blue exclusion. Then, the cells were plated. Specifically, after cell density optimization, 100 µL of each of the cell suspensions of HL-60 and SK-BR-3 cells (cell density: 3000 cells/well), Romas cells (cell density: 6000 cells/well), NCI-H929 cells (cell density: 4000 cells/well), and NCI-H82 cells (cell density: 5000 cells/well) was plated in a BeyoGold™ ultra-low attachment black clear-bottom 96-well plate (Cat. No.: FULA965-24pcs), and the plate was incubated overnight. The next day, after the adherent cells were adhered to the wall and suspension cells requiring aggregation were aggregated, 50 µL of culture medium was aspirated from each well of the 96-well plate. Then, the compounds diluted with the corresponding culture media were added. Specifically, the compounds were serially diluted at a 5-fold gradient starting from the highest concentration of 1 µM, with a final DMSO concentration of 1%o, and the test compounds were then added to the cell culture plate. The plate was incubated in an incubator at 37 °C with 5% carbon dioxide for 96 h. Before measurement, the CellTiter-Lumi™ luminescent cell viability assay reagent was equilibrated to room temperature in the dark. Then, 50 µL of the CellTiter-Lumi™ (Cat. No.: C0065XL) cell viability assay reagent was added to each well of the 96-well plate. The plate was shaken in the dark on a shaker at 300 rpm for 10 min to ensure complete cell lysis. After the reaction was completed, the luminescence was measured on a multi-mode microplate reader. The cell inhibition rate was determined according to the luminescence. Then, a cell viability curve was generated by Graphpad Prism 8.0, and the IC50 values were calculated. The compounds of the present disclosure were tested for activity by the method described above. Table 1. Cell inhibitory activity (IC50 values)

GSPT1 protein = target: T1, GSPT1 protein (Homo sapiens, UniProt P15170+Q96SW2); assay: GSPT1 protein degradation, Nano-Glo HiBiT assay in HiBiT-GSPT1 HEK293T cells; type: cell-based; conditions: 24 h
T1 construct: An HiBiT protein tag was added to the N-terminus of the endogenous GSPT1 protein of HEK293T cells by CRISPR gene editing technology; endogenous in cells; host or cells: HEK293T (CRISPR knock-in HiBiT-GSPT1 cell strain)
T1 sequence (P15170 whole entry): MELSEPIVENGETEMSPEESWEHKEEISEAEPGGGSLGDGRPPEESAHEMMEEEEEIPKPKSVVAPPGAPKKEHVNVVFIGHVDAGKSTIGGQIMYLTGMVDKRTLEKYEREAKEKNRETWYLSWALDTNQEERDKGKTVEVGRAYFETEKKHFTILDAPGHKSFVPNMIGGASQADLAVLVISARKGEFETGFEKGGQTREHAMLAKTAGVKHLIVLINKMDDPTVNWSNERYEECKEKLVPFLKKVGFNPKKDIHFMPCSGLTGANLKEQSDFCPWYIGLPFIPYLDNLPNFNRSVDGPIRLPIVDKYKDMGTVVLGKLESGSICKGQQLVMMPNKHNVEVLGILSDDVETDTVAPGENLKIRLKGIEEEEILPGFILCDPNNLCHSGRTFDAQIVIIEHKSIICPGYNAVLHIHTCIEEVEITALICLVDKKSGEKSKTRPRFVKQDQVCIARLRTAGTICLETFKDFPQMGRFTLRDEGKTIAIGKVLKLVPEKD
T1 sequence (Q96SW2 whole entry): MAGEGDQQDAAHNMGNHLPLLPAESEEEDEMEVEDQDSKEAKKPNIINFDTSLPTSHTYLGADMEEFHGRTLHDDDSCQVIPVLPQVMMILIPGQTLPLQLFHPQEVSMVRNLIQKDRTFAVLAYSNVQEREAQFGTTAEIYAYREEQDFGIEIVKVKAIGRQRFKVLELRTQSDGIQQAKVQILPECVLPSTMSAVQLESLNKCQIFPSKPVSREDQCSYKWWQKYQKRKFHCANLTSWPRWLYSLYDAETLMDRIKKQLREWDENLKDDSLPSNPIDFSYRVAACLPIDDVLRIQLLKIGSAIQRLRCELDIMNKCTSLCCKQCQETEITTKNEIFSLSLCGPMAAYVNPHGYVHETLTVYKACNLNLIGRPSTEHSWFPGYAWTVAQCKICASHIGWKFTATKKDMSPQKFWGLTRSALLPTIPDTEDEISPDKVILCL
T1 sequence (Q16531 whole entry partner): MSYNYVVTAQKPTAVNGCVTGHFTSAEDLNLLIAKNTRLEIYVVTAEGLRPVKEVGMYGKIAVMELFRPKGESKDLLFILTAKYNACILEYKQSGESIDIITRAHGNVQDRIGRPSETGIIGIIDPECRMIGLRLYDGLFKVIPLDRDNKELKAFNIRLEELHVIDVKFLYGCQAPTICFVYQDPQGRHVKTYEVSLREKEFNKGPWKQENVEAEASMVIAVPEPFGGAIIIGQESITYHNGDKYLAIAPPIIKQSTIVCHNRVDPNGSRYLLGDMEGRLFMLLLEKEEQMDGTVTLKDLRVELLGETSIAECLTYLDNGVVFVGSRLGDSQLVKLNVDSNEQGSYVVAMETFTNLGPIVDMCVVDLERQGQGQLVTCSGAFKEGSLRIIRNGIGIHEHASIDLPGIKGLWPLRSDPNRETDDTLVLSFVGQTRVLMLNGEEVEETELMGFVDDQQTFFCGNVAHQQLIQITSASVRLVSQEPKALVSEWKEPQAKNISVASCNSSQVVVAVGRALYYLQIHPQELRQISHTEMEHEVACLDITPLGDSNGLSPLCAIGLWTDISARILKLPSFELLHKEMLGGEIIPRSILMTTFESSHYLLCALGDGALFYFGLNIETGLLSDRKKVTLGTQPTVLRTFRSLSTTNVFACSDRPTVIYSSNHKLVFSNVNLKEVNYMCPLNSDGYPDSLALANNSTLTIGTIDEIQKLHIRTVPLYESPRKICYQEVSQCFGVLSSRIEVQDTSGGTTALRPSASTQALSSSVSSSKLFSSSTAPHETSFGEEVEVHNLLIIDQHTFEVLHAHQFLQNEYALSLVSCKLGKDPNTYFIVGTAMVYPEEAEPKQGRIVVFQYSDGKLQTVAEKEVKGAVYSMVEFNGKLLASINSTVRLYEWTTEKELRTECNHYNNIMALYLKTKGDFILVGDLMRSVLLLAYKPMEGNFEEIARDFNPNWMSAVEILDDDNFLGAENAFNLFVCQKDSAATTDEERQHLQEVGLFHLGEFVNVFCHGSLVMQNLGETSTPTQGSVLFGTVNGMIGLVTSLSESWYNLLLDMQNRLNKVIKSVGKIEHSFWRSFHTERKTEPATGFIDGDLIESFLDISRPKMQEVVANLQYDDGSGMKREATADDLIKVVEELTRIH
Procedure: This experiment was performed to evaluate the targeting property of the compounds. An HiBiT protein tag was added to the N-terminus of the endogenous GSPT1 protein of HEK293T cells by CRISPR gene editing technology, so as to construct a HiBiT-GSPT1 HEK293T stably transfected cell strain. HiBiT-GSPT1 HEK293T cells were cultured in DMEM containing 10% FBS and 1% PenStrep. When the cell confluency reached 80%-90%, the cells were digested with trypsin, pipetted into single cells, and resuspended in a corresponding culture medium to form a cell suspension. The cells were counted using Cell Countess (NanoEnTek, #Cat. EVE-MC2), and the cell viability was determined by trypan blue exclusion to ensure that the cell viability was above 90%. The cells were plated in a 384-well plate (Corning, #Cat. 3764) at 10,000 cells/40 µL of cell suspension per well, and cultured in an incubator at 37 °C with 5% CO2 overnight. The next day, the test compounds were added to the 384-well plate under conditions of 30 µM highest concentration, 5-fold serial dilution, and 1‰ DMSO. The plate was incubated in the incubator at 37 °C with 5% CO2 for another 24 h. Before measurement, the Nano-Glo HiBiT reagent was equilibrated to room temperature, the LgBiT protein was diluted with the Nano-Glo HiBiT Lytic buffer according to a dilution ratio of 1:100, and the Nano-Glo@HiBiT Lytic substrate was diluted to an appropriate volume according to a ratio of 1:50. After the cell culture plate was equilibrated at room temperature for 10 min, 40 µL of Nano-Glo HiBiT Lytic assay reagent was added to each well. The plate was shaken on a microplate shaker at a rotation speed of 300 rpm for 3 min in the dark. After the reaction was completed, the luminescencevalues were read on BMG PHERASTAR FS (BMG LRBTECH, Cat. No.: PHERAstar FSX), and the DC50 values were calculated using GraphPad Prism 8.0. Table 2. GSPT1 protein degradation

HL-60 = assay: In vitro anti-tumor activity of molecular glue compounds, CellTiter-Lumi cell viability assay; type: cell-based; conditions: Homo sapiens; HL-60 cells, 96 h incubation; read-out: Cell inhibitory activity (IC50 values) HL-60
Procedure: as §1

NCI-H82 = assay: as above; type: cell-based; conditions: Homo sapiens; NCI-H82 cells, 96 h incubation; read-out: Cell inhibitory activity (IC50 values) NCI-H82
Procedure: as §1

NCI-H929 = assay: as above; type: cell-based; conditions: Homo sapiens; NCI-H929 cells, 96 h incubation; read-out: Cell inhibitory activity (IC50 values) NCI-H929
Procedure: as §1

Romas = assay: as above; type: cell-based; conditions: Romas cells, 96 h incubation; read-out: Cell inhibitory activity (IC50 values) Romas
Procedure: as §1

in vitro [1] = conditions: human, microsomes
Procedure: (§3) The final concentration of the substrate in the incubation system was 1 µM, and the incubation time was 60 min. Sampling was performed at 0 min, 5 min, 15 min, 30 min, and 60 min. The reaction was stopped with glacial acetonitrile containing an internal standard (testosterone-d3 at a concentration of 10 ng/mL). Verapamil was used as a positive control. […] The natural logarithm of the remaining percentage was subjected to linear fitting with time to determine the elimination rate constant (k).

in vitro [2] = conditions: monkey, microsomes
Procedure: as §3

in vitro [3] = conditions: dog, microsomes
Procedure: as §3

in vitro [4] = conditions: rat, microsomes
Procedure: as §3

in vitro [5] = conditions: mouse, microsomes
[6] = Metabolic stability in liver microsomes; conditions: Human liver microsomes, after 60 min of incubation
Procedure: as §3

[7] = Metabolic stability in liver microsomes; conditions: Monkey liver microsomes, after 60 min of incubation
Procedure: as §3

[8] = Metabolic stability in liver microsomes; conditions: Dog liver microsomes, after 60 min of incubation
Procedure: as §3

[9] = Metabolic stability in liver microsomes; conditions: Rat liver microsomes, after 60 min of incubation
Procedure: as §3

[10] = Metabolic stability in liver microsomes; conditions: Mouse liver microsomes, after 60 min of incubation
AsPc-1 = assay: Activity in cell strains with high expression of efflux pump proteins, cell viability assay; type: cell-based; conditions: Homo sapiens, ASPC1, AsPc-1 cells, 96 h
Procedure: (§2) Three types of cells used for evaluating the activity of the compounds of the present disclosure against a cell strain with high expression of efflux pump proteins were all purchased from Nanjing Cobioer Biosciences Co., Ltd., and all the cells were derived from ATCC (American Type Culture Collection). Various tumor cells were cultured until the cell confluency reached 80%-90%, with cell viability above 90% as determined by trypan blue exclusion. Then, the cells were plated. Specifically, after cell density optimization, 75 µL of each of three cell suspensions of SNU-5, HCT-15, and AsPc-1 cells (3000 cells/well) was inoculated into a BeyoGold™ ultra-low attachment black clear-bottom 96-well plate (Cat. No.: FULA965-24pcs), and the plate was incubated overnight in a cell incubator at 37 °C with carbon dioxide. The next day, after the cells adhered to the wall, 75 µL of the compounds diluted with the corresponding culture media were added. Specifically, the compounds were serially diluted at a 5-fold gradient starting from the highest concentration of 1 µM, with a final DMSO concentration of 1‰, and the test compounds were then added to the cell culture plate. The plate was incubated in an incubator at 37 °C with 5% carbon dioxide for 96 h. Before measurement, the CellTiter-Lumi™ luminescent cell viability assay reagent was equilibrated to room temperature in the dark. Then, 50 µL of the CellTiter-Lumi™ (Cat. No.: C0065XL) cell viability assay reagent was added to each well of the 96-well plate. The plate was shaken in the dark on a shaker at 300 rpm for 10 min to ensure complete cell lysis. After the reaction was completed, the chemiluminescence intensity was measured on a multi-mode microplate reader. The cell viability inhibition rate was determined according to the chemiluminescence intensity. Then, a cell viability curve was generated by Graphpad Prism 8.0, and the IC50 values were calculated. Table 3. Activity of the compounds of the present disclosure in cell strains with high expression of efflux pump proteins (IC50 value)

HCT-15 = assay: as above; type: cell-based; conditions: Homo sapiens, HCT-15 cells, 96 h
Procedure: as §2

SNU-5 = assay: as above; type: cell-based; conditions: Homo sapiens, SNU-5 cells, 96 h
Procedure: as §2

[11] = 96 h incubation, read-out: Cell inhibitory activity (IC50 values) SK-BR-3

SMILES: CC(C)(C)OC(=O)N1CCCC(OCCCc2ccc(NC(=O)NCc3ccc4c(c3)CN(C3CCC(=O)NC3=O)C4=O)cc2Cl)C1 (stereo not shown) [Compound A19]
- IC50 (SK-BR-3; read-out: SK-BR-3 IC50): 1.22 nM
- DC50 (GSPT1 protein): 16 nM

- IC50 (HL-60): < 10 nM
- IC50 (NCI-H82): 10 to 50 nM
- IC50 (NCI-H929): < 10 nM
- IC50 (Romas): < 10 nM
- IC50 (SK-BR-3; [11]): < 10 nM
- CLint scaled at 1 µM (in vitro [1]): 7.03 mL/min/kg
- CLint scaled at 1 h, 1 µM (in vitro [1]): 5.27 mL/min/kg
- half-life at 1 µM (in vitro [1]): 4.12 h
- CLint scaled at 1 µM (in vitro [2]): 13.7 mL/min/kg
- CLint scaled at 1 h, 1 µM (in vitro [2]): 10.5 mL/min/kg
- half-life at 1 µM (in vitro [2]): 2.47 h
- CLint scaled at 1 µM (in vitro [3]): 11.8 mL/min/kg
- CLint scaled at 1 h, 1 µM (in vitro [3]): 8.55 mL/min/kg
- half-life at 1 µM (in vitro [3]): 4.88 h
- CLint scaled at 1 µM (in vitro [4]): 19.8 mL/min/kg
- CLint scaled at 1 h, 1 µM (in vitro [4]): 14.6 mL/min/kg
- half-life at 1 µM (in vitro [4]): 2.08 h
- CLint scaled at 1 µM (in vitro [5]): 32.2 mL/min/kg
- CLint scaled at 1 h, 1 µM (in vitro [5]): 23.7 mL/min/kg
- half-life at 1 µM (in vitro [5]): 2.9 h
- Parent drug remaining % [6]: 83.4%
- Parent drug remaining % [7]: 79.4%
- Parent drug remaining % [8]: 86.4%
- Parent drug remaining % [9]: 71.0%
- Parent drug remaining % [10]: 79.8%
SMILES: O=C1CCC(N2Cc3cc(CNC(=O)Nc4ccc(CCCOC5CCNCC5)c(Cl)c4)ccc3C2=O)C(=O)N1 (stereo not shown) [Compound B61]

- IC50 (HL-60): 10 to 50 nM
- IC50 (NCI-H82): 50 to 100 nM
- IC50 (NCI-H929): 50 to 100 nM
- IC50 (Romas): > 100 nM
- IC50 (SK-BR-3; [11]): > 100 nM
- IC50 (SK-BR-3; read-out: SK-BR-3 IC50): 32.3 nM
- DC50 (GSPT1 protein): 274 nM
- IC50 (AsPc-1): 50 to 200 nM
- IC50 (HCT-15): > 1000 nM
- IC50 (SNU-5): > 1000 nM
SMILES: CNCCOCCc1ccc(NC(=O)NCc2ccc3c(c2)CN(C2CCC(=O)NC2=O)C3=O)cc1Cl (stereo not shown) [Smol006, reference compound]
